{"source": "patent US20220039384A1", "about": "“SELECTIVE WEED CONTROL WITH HALAUXIFEN OR 4-AMINO-3-CHLORO-5-FLUORO-6-(4-CHLORO-2-FLUORO-3-METHOXYPHENYL) PYRIDINE-2-CARBOXYLIC ACID OR DERIVATIVES THEREOF IN VINEYARDS OR PERENNIAL CROPS” (Corteva Agriscience LLC, priority 2013, published 2022)", "test_in_all_cases": "Field trial, pre-emergence dormant application (December), California vineyards: visual weed control", "type_in_all_cases": "in vivo", "settings_in_all_cases": "applied prior to weed emergence", "key": {"[1]": {"test_system": "ERICA (Conyza canadensis, horseweed)", "excerpt": "(§1) As used herein, selective pre- and post-emergence control of undesirable vegetation means preventing, reducing, killing, or otherwise adversely modifying the development of the undesirable vegetation in the presence of crop plants with limited adverse effect on the crop plants. For example, a broadleaf weed control of 80% (rated visually) with crop injury of less than or equal to 20% (rated visually) would constitute selective control. In some embodiments the adverse effect on crop plants is limited to less than 10% visually rated crop injury. Visual crop injury is a composite rating accounting for all phytotoxic effects including chlorosis, necrosis, growth inhibition, epinasty, delays in maturity and seed or fruit deformity. Visual weed control is a composite rating accounting for reductions in pest plant biomass and/or stand reduction.\n(§2) Small plot research experiments were conducted in Fresno, Calif., USA to evaluate the pre-emergence and post-emergence herbicidal weed control activity and the vines crop tolerance to pre-emergence and post-emergence application of Compound I and Compound II to the weeds. Application water volume of 100 to 187 liters per hectare (L/ha) was used for all experiments. All treatments were applied with a standard small plot carbon dioxide (CO2) backpack sprayer. All treatments were tank-mixed with Crop Oil Concentrate (COC), a well known adjuvant, at 2.34 L/ha. Experimental emulsifiable concentrate (EC) formulations were used for Compounds I and II. The dimethylammonium (DMA) salt of glyphosate was used in all trials. Pindar® GT is a commercial formulation containing a pre-mix of penoxsulam+oxyfluorfen (10+476 grams of active ingredient per liter (g ai/L), respectively). Vine crop stage was dormant (no leaves on the vines during the winter) or early spring growth at the time of Compound I or Compound II application. Generally, weeds were not emerged for the pre-emergence treatments or were at the two to six-leaf stage at the time of the post-emergence herbicide application.\n(§3) Tables 1, 2 and 6 provide weed control results from pre-emergence applications of Compounds I and/or II prior to weed emergence; Tables 4, 7 and 8 provide weed control results from post-emergence applications of Compounds I and/or II applied to actively growing weeds; Tables 3 and 5 provide vine response data from pre-emergence and post-emergence applications of Compound I respectively."}, "[2]": {"test_system": "MALPA (Malva parviflora, smallflower malva)", "excerpt": "as §1, §2, §3"}, "[3]": {"test_system": "EROCI (Erodium cicutarium, redstem filaree)", "excerpt": "as §1, §2, §3"}, "[4]": {"test_system": "HORMU (Hordeum murinam, wall barley)", "excerpt": "as §1, §2, §3"}, "[5]": {"test_system": "POAAN (Poa annua, annual bluegrass)", "excerpt": "as §1, §2, §3"}, "[6]": {"test_system": "CAPBP (Capsella bursa-pastoris, Shepherd's purse)", "excerpt": "as §1, §2, §3"}, "[7]": {"test_system": "PANCA (Panicum capillare, witchgrass)", "excerpt": "as §1, §2, §3"}}, "data": [{"smiles": "COC(=O)c1nc(-c2ccc(Cl)c(OC)c2F)cc(N)c1Cl", "note": "[I—Me, methyl 4-amino-3-chloro-6-(4-chloro-2-fluoro-3-methoxyphenyl)pyridine-2-carboxylate]", "values": [{"measurement": "% Visual Control 90 DAA ERICA", "setting": "[1]; 10 g ae/ha", "result": 75, "unit": "%"}, {"measurement": "% Visual Control 184 DAA ERICA", "setting": "[1]; 10 g ae/ha", "result": 92, "unit": "%"}, {"measurement": "% Visual Control 90 DAA ERICA", "setting": "[1]; 20 g ae/ha", "result": 100, "unit": "%"}, {"measurement": "% Visual Control 184 DAA ERICA", "setting": "[1]; 20 g ae/ha", "result": 97, "unit": "%"}, {"measurement": "% Visual Control 90 DAA ERICA", "setting": "[1]; 40 g ae/ha", "result": 100, "unit": "%"}, {"measurement": "% Visual Control 184 DAA ERICA", "setting": "[1]; 40 g ae/ha", "result": 100, "unit": "%"}, {"measurement": "% Visual Control 90 DAA MALPA", "setting": "[2]; 10 g ae/ha", "result": 85, "unit": "%"}, {"measurement": "% Visual Control 184 DAA MALPA", "setting": "[2]; 10 g ae/ha", "result": 45, "unit": "%"}, {"measurement": "% Visual Control 90 DAA MALPA", "setting": "[2]; 20 g ae/ha", "result": 88, "unit": "%"}, {"measurement": "% Visual Control 184 DAA MALPA", "setting": "[2]; 20 g ae/ha", "result": 60, "unit": "%"}, {"measurement": "% Visual Control 90 DAA MALPA", "setting": "[2]; 40 g ae/ha", "result": 89, "unit": "%"}, {"measurement": "% Visual Control 184 DAA MALPA", "setting": "[2]; 40 g ae/ha", "result": 47, "unit": "%"}, {"measurement": "% Visual Control 90 DAA EROCI", "setting": "[3]; 10 g ae/ha", "result": 58, "unit": "%"}, {"measurement": "% Visual Control 184 DAA EROCI", "setting": "[3]; 10 g ae/ha", "result": 47, "unit": "%"}, {"measurement": "% Visual Control 90 DAA EROCI", "setting": "[3]; 20 g ae/ha", "result": 72, "unit": "%"}, {"measurement": "% Visual Control 184 DAA EROCI", "setting": "[3]; 20 g ae/ha", "result": 52, "unit": "%"}, {"measurement": "% Visual Control 90 DAA EROCI", "setting": "[3]; 40 g ae/ha", "result": 82, "unit": "%"}, {"measurement": "% Visual Control 184 DAA EROCI", "setting": "[3]; 40 g ae/ha", "result": 55, "unit": "%"}, {"measurement": "% Visual Control 90 DAA HORMU", "setting": "[4]; 10 g ae/ha", "result": 100, "unit": "%"}, {"measurement": "% Visual Control 184 DAA HORMU", "setting": "[4]; 10 g ae/ha", "result": 90, "unit": "%"}, {"measurement": "% Visual Control 90 DAA HORMU", "setting": "[4]; 20 g ae/ha", "result": 100, "unit": "%"}, {"measurement": "% Visual Control 184 DAA HORMU", "setting": "[4]; 20 g ae/ha", "result": 88, "unit": "%"}, {"measurement": "% Visual Control 90 DAA HORMU", "setting": "[4]; 40 g ae/ha", "result": 100, "unit": "%"}, {"measurement": "% Visual Control 184 DAA HORMU", "setting": "[4]; 40 g ae/ha", "result": 92, "unit": "%"}, {"measurement": "% Visual Control 90 DAA POAAN", "setting": "[5]; 10 g ae/ha", "result": 58, "unit": "%"}, {"measurement": "% Visual Control 184 DAA POAAN", "setting": "[5]; 10 g ae/ha", "result": 48, "unit": "%"}, {"measurement": "% Visual Control 90 DAA POAAN", "setting": "[5]; 20 g ae/ha", "result": 65, "unit": "%"}, {"measurement": "% Visual Control 184 DAA POAAN", "setting": "[5]; 20 g ae/ha", "result": 28, "unit": "%"}, {"measurement": "% Visual Control 90 DAA POAAN", "setting": "[5]; 40 g ae/ha", "result": 63, "unit": "%"}, {"measurement": "% Visual Control 184 DAA POAAN", "setting": "[5]; 40 g ae/ha", "result": 47, "unit": "%"}, {"measurement": "% Visual Control 90 DAA CAPBP", "setting": "[6]; 10 g ae/ha", "result": 62, "unit": "%"}, {"measurement": "% Visual Control 90 DAA CAPBP", "setting": "[6]; 20 g ae/ha", "result": 58, "unit": "%"}, {"measurement": "% Visual Control 90 DAA CAPBP", "setting": "[6]; 40 g ae/ha", "result": 82, "unit": "%"}, {"measurement": "% Visual Control 184 DAA PANCA", "setting": "[7]; 10 g ae/ha", "result": 60, "unit": "%"}, {"measurement": "% Visual Control 184 DAA PANCA", "setting": "[7]; 20 g ae/ha", "result": 33.3, "unit": "%"}, {"measurement": "% Visual Control 184 DAA PANCA", "setting": "[7]; 40 g ae/ha", "result": 63.3, "unit": "%"}]}]}
